Marks after values point to notes of the source that are not given here.
What was measured:
[1] = Solubility estimates using nephelometry; assay type: physicochemical; details: pH 6.5 phosphate buffer
Method: Compound in DMSO was spiked into either pH 6.5 phosphate buffer or 0.01 M HCl (approx. pH 2.0) with the final DMSO concentration being 1%. Samples were then analysed via Nephelometry to determine a solubility range. (See C. D. Bevan and R. S. Lloyd, Anal. Chem. 2000, 72, 1781-1787).

[2] = Exposure in male Swiss outbred mice following IV administration; assay type: in vivo; details: IV 5 mg/kg
Method: The systemic exposures of NCL026, NCL195, NCL259 and NCL812 were studied in nonfasted male Swiss outbred mice weighing 26.2-32.1 g. Mice had access to food and water ad libitum throughout the pre- and post-dose sampling period. Each compound was administered IV via a bolus injection into the tail vein (vehicle 20% (v/v) DMSO in PEG400, 1 mL/kg dose volume, n=8 mice per compound). […] A maximum of two samples were obtained from each mouse, with samples being taken either via submandibular bleed (approximately 120 μL; conscious sampling) or terminal cardiac puncture (0.6 mL; while mice were anaesthetised using inhaled Isoflurane). No urine samples were collected as mice were housed in bedded cages during the study. Blood was collected directly into polypropylene Eppendorf tubes containing heparin as anticoagulant, and stabilisation cocktail (containing Complete® (a protease inhibitor cocktail with EDTA) and potassium fluoride) to minimise the potential for ex vivo degradation of the test compounds in blood/plasma samples. Once collected, blood samples were centrifuged immediately, supernatant plasma was removed, and stored at −80° C. until analysis by LC-MS using methods standard in the art. Each compound was administered in a vehicle composed of 20% (v/v) DMSO in PEG400. Formulations were prepared by dissolving the compounds in DMSO prior to addition of PEG400. Formulations were not filtered prior to dosing and were administered to mice within 2.5 h of preparation. […] The dose administered to each mouse was calculated on the basis of the measured concentration in the IV formulation, the dose volume and individual mouse body weight. Plasma concentration versus time data were analysed using non-compartmental methods (WinNonlin Version 6.3.0.395). Standard calculations for each pharmacokinetic parameter were calculated using standard methods in the art.

[3] = values marked a, b are approximations

Cl.[H]/N=C(\N)NN=C(CC1CCCCC1)c1ccc(Cl)cc1 [NCL259]
kinetic solubility under neutral pH conditions [1]: more moderate
Apparent t1/2 ([2]; plasma, value marked b is an approximation): 2.9 h
AUC0-inf [2, 3]: 5.5^a h * μM
Plasma CL [2, 3]: 56.0^a mL/min/kg
Plasma Vss [2, 3]: 12.8^a L/kg

Reference: US10392363B2, “Methods for treating protozoan infections” (Neoculi Pty Ltd., priority 2014, dated 2019)
